From US20240150377A1, “MODULATORS OF CYSTIC FIBROSIS TRANSMEMBRANE CONDUCTANCE REGULATOR” (VERTEX PHARMACEUTICALS INCORPORATED, priority 2020, published 2024)
Like-named read-outs stand apart in the source and are kept apart here.

Biological target: T1, CFTR (Homo sapiens, UniProt P13569, DEL508-508)
T1 construct: endogenous in cells; host or cells: primary human bronchial epithelial cells from CF subjects (F508del/MF-HBE), differentiated at air-liquid interface
Test: HBE assay: Ussing chamber assay of CFTR-mediated short-circuit currents
Assay type: cell-based
Settings: for EC50: read-out: HBE EC50
Outline: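 CFTR-mediated Isc (μA/cm²) equals the peak response to apical 20 μM forskolin minus the residual after a 20 μM each BPO/GlyH-101/CFTR inhibitor 172 cocktail, recorded in Ussing chambers at Vhold 0 mV, 37 °C, pH 7.4, with 30 μM apical amiloride. Cells were F508del/MF HBE cultures preincubated 18-24 h with corrector (concentration range or 10 μM) plus 1 μM ivacaftor in 20% human serum.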

[1] = Table 12, read-out: HBE Max Activity (%)
[2] = Table 12, read-out: HBE Activity at 10 μM (%)
[3] = Table 10, read-out: HBE Max activity (%)
[4] = Table 10, read-out: HBE activity at 10 (μM) (%)

T1 sequence (P13569 with tags, fused parts or gaps DEL508-508): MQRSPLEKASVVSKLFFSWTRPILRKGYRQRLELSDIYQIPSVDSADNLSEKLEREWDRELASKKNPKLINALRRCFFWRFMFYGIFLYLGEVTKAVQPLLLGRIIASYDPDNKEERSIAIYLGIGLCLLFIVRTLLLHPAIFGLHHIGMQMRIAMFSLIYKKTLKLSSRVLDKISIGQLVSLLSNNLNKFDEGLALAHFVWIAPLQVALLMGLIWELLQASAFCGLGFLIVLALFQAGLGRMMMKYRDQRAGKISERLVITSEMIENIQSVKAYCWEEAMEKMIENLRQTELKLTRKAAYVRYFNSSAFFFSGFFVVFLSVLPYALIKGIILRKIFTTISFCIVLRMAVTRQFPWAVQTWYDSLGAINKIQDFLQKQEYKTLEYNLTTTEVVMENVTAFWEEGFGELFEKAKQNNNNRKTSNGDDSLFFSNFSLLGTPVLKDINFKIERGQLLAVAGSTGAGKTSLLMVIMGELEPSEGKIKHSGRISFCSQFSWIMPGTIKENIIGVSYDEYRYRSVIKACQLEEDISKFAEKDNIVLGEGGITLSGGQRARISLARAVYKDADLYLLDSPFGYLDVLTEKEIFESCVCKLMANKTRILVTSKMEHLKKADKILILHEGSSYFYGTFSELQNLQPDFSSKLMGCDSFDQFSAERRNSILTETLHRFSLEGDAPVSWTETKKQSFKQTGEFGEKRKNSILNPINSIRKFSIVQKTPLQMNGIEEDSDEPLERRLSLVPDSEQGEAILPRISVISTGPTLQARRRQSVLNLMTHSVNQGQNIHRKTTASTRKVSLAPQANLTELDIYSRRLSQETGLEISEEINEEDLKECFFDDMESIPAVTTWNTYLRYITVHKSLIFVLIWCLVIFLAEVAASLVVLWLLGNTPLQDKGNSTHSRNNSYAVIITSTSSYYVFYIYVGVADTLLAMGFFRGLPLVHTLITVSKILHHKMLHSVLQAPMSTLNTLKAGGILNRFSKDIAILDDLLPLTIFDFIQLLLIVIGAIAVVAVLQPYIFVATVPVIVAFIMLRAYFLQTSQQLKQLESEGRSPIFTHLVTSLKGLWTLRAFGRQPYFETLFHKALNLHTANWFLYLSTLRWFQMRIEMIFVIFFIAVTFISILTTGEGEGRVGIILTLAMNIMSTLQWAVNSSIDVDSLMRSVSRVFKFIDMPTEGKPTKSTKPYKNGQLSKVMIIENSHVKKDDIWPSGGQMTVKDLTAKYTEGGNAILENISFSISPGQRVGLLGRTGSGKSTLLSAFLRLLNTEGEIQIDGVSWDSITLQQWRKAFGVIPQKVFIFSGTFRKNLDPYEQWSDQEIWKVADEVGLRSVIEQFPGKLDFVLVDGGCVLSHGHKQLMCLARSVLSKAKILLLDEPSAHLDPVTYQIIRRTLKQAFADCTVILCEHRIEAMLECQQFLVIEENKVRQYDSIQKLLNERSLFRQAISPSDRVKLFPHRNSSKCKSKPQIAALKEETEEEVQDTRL

| SMILES | EC50 (Table 12) [µM] | Emax [1] [%] | Emax [3] [%] | other results |
| --- | --- | --- | --- | --- |
| Cc1cccc(C)c1-c1cc2nc(n1)NS(=O)(=O)c1cccc(c1)C(=O)N(Cc1cncc(N(C)CCOC(C)C)n1)[C@H](CC(C)(C)C)CO2 [Compound 262] | < 1 | > 60 | – | – |
| Cc1cccc(C)c1-c1cc2nc(n1)NS(=O)(=O)c1cccc(c1)C(=O)N(Cc1cncc(N3CC(C(=O)O)C(C(C)C)C3)n1)[C@H](CC(C)(C)C)CO2 (stereo partly drawn) [Compound 263] | – | – | – | activation at 10 µM [2]: 30 to 60% |
| Cc1cccc(C)c1-c1cc2nc(n1)NS(=O)(=O)c1cccc(c1)C(=O)N(Cc1nc(C(C)C)c[nH]1)[C@H](CC(C)(C)C)CO2 [Compound 264] | < 1 | > 60 | – | activation at 10 µM [2]: < 30% |
| Cc1cccc(C)c1-c1cc2nc(n1)NS(=O)(=O)c1cccc(c1)C(=O)N(Cc1nc(C(C)C)cn1COCC[Si](C)(C)C)[C@H](CC(C)(C)C)CO2 [Compound 265] | – | – | – | activation at 10 µM [2]: > 600% |
| Cc1cccc(C)c1-c1cc2nc(n1)NS(=O)(=O)c1cccc(c1)C(=O)N(Cc1ncc(C(C)C)n1C)[C@H](CC(C)(C)C)CO2 [Compound 266] | – | – | – | activation at 10 µM [2]: > 600% |
| Cc1cccc(C)c1-c1cc2nc(n1)NS(=O)(=O)c1cccc(c1)C(=O)N(Cc1nc(C(C)C)cn1C)[C@H](CC(C)(C)C)CO2 [Compound 267] | < 1 | > 60 | – | – |
| Cc1cccc(C)c1-c1cc2nc(n1)NS(=O)(=O)c1cccc(c1)C(=O)N(Cc1nc3ccccc3n1C)[C@H](CC(C)(C)C)CO2 [Compound 268] | < 1 | > 60 | – | – |
| Cc1cccc(C)c1-c1cc2nc(n1)NS(=O)(=O)c1cccc(c1)C(=O)N(Cc1nc(C)c(C)n1C)[C@H](CC(C)(C)C)CO2 [Compound 269] | – | – | – | activation at 10 µM [2]: > 600% |
| Cc1cccc(C)c1-c1cc2nc(n1)NS(=O)(=O)c1cccc(c1)C(=O)N(Cc1cnc(OC(C)C)nc1)[C@H](CC(C)(C)C)CO2 [Compound 270] | < 1 | > 60 | – | – |
| Cc1cccc(C)c1-c1cc2nc(n1)NS(=O)(=O)c1cccc(c1)C(=O)N(Cc1cnc(C3CCCCC3)nc1)[C@H](CC(C)(C)C)CO2 [Compound 271] | < 1 | > 60 | – | – |
| Cc1cccc(C)c1-c1cc2nc(n1)NS(=O)(=O)c1cccc(c1)C(=O)N(Cc1cnc(N3CCC(C)(C)C3)nc1)[C@H](CC(C)(C)C)CO2 [Compound 272] | < 1 | > 60 | – | – |
| COC[C@@H]1CCCN1c1cncc(CN2C(=O)c3cccc(c3)S(=O)(=O)Nc3nc(cc(-c4c(C)cccc4C)n3)OC[C@H]2CC(C)(C)C)n1 [Compound 273] | < 1 | > 60 | – | – |
| COC[C@H]1CCCN1c1cncc(CN2C(=O)c3cccc(c3)S(=O)(=O)Nc3nc(cc(-c4c(C)cccc4C)n3)OC[C@H]2CC(C)(C)C)n1 [Compound 274] | < 1 | > 60 | – | – |
| COC[C@@H]1CCCN1c1cccc(CN2C(=O)c3cccc(c3)S(=O)(=O)Nc3nc(cc(-c4c(C)cccc4C)n3)OC[C@H]2CC(C)(C)C)n1 [Compound 275] | < 1 | > 60 | – | – |
| COC[C@H]1CCCN1c1cccc(CN2C(=O)c3cccc(c3)S(=O)(=O)Nc3nc(cc(-c4c(C)cccc4C)n3)OC[C@H]2CC(C)(C)C)n1 [Compound 276] | < 1 | > 60 | – | – |
| Cc1cccc(C)c1-c1cc(O)nc(NS(=O)(=O)c2cccc(C(=O)N(Cc3cccc(N4CCC[C@]4(C)C(=O)O)n3)[C@@H](C)CC(C)(C)C)c2)n1 [Compound 277] | – | – | – | activation at 10 µM [2]: > 600% |
| Cc1cccc(C)c1-c1cc2nc(n1)NS(=O)(=O)c1cccc(c1)C(=O)N(Cc1cccc(N3CCC[C@@]3(C)C(=O)O)n1)[C@H](CC(C)(C)C)CO2 [Compound 278] | – | – | – | activation at 10 µM [2]: > 600% |
| Cc1cccc(C)c1-c1cc2nc(n1)NS(=O)(=O)c1cccc(c1)C(=O)N(Cc1cccc(N3CCC[C@H]3CO)n1)[C@H](CC(C)(C)C)CO2 [Compound 279] | < 1 | > 60 | – | – |
| Cc1cccc(C)c1-c1cc2nc(n1)NS(=O)(=O)c1cccc(c1)C(=O)N(Cc1cccc(N3CCC[C@@H]3CO)n1)[C@H](CC(C)(C)C)CO2 [Compound 280] | < 1 | > 60 | – | – |
| Cc1cccc(C)c1-c1cc2nc(n1)NS(=O)(=O)c1cccc(c1)C(=O)N(Cc1cncc(N(C)CC(C)(C)C)c1)[C@H](CC(C)(C)C)CO2 [Compound 281] | – | – | – | activation at 10 µM [2]: > 600% |
| Cc1cccc(C)c1-c1cc2nc(n1)NS(=O)(=O)c1cccc(c1)C(=O)N(Cc1cncc(N3CCCC3(C)C)c1)[C@H](CC(C)(C)C)CO2 [Compound 282] | – | – | – | activation at 10 µM [2]: > 600% |
| Cc1cccc(C)c1-c1cc2nc(n1)NS(=O)(=O)c1cccc(c1)C(=O)N(Cc1cncc(N3CCC[C@@H]3C)c1)[C@H](CC(C)(C)C)CO2 [Compound 283] | – | – | – | activation at 10 µM [2]: > 600% |
| Cc1cccc(C)c1-c1cc2nc(n1)NS(=O)(=O)c1cccc(c1)C(=O)N(Cc1cncc(N3CCC[C@H]3C)c1)[C@H](CC(C)(C)C)CO2 [Compound 284] | – | – | – | activation at 10 µM [2]: > 600% |

| SMILES | EC50 (Table 12) [µM] | Emax [1] [%] | Emax [3] [%] | other results |
| --- | --- | --- | --- | --- |
| Cc1cccc(C)c1-c1cc2nc(n1)NS(=O)(=O)c1cccc(c1)C(=O)N(Cc1cncc(N3CCC(C)(C)C3)c1)[C@H](CC(C)(C)C)CO2 [Compound 285] | < 1 | > 60 | – | – |
| Cc1cccc(C)c1-c1cc2nc(n1)NS(=O)(=O)c1cccc(c1)C(=O)N(Cc1cncc(C3CCCCC3)c1)[C@H](CC(C)(C)C)CO2 [Compound 286] | < 1 | > 60 | – | – |
| Cc1cccc(C)c1-c1cc2nc(n1)NS(=O)(=O)c1cccc(c1)C(=O)N([C@@H](C)c1ccc(-c3cn[nH]c3)cc1)[C@H](CC(C)(C)C)CO2 [Compound 287] | – | – | > 60 | – |
| Cc1cccc(C)c1-c1cc2nc(n1)NS(=O)(=O)c1cccc(c1)C(=O)N(Cc1ccc(C3=CCN=N3)cc1)[C@H](CC(C)(C)C)CO2 [Compound 289] | – | – | > 60 | – |
| Cc1cccc(C)c1-c1cc2nc(n1)NS(=O)(=O)c1cccc(c1)C(=O)N(Cc1ccc(-c3cc[nH]n3)cc1)[C@H](CC(C)(C)C)CO2 [Compound 290] | – | – | – | activation at 10 µM [4]: > 60% |
| Cc1cccc(C)c1-c1cc2nc(n1)NS(=O)(=O)c1cccc(c1)C(=O)N(Cc1ccc(-c3cnoc3)cn1)[C@H](CC(C)(C)C)CO2 [Compound 291] | – | – | > 60 | – |
| Cc1cccc(C)c1-c1cc2nc(n1)NS(=O)(=O)c1cccc(c1)C(=O)N(Cc1ccc(-c3c(C)noc3C)cc1)[C@H](CC(C)(C)C)CO2 [Compound 292] | – | – | > 60 | – |
| Cc1cccc(C)c1-c1cc2nc(n1)NS(=O)(=O)c1cccc(c1)C(=O)N([C@@H](C)c1ccc(-c3c(C)n[nH]c3C)cc1)[C@H](CC(C)(C)C)CO2 [Compound 293] | – | – | > 60 | EC50 (Table 10): < 1 µM |
| Cc1cccc(C)c1-c1cc2nc(n1)NS(=O)(=O)c1cccc(c1)C(=O)N(C(C)c1ccc(-c3c(C)n[nH]c3C)cc1)[C@H](CC(C)(C)C)CO2 (stereo partly drawn) [Compound 294] | – | – | – | activation at 10 µM [4]: > 60% |
| Cc1cccc(C)c1-c1cc2nc(n1)NS(=O)(=O)c1cccc(c1)C(=O)N(Cc1cccc(Cc3nccs3)c1)[C@H](CC(C)(C)C)CO2 [Compound 295] | – | – | > 60 | EC50 (Table 10): < 1 µM |
| Cc1cccc(C)c1-c1cc2nc(n1)NS(=O)(=O)c1cccc(c1)C(=O)N(Cc1ccc(Cc3nccs3)cc1)[C@H](CC(C)(C)C)CO2 [Compound 296] | – | – | > 60 | EC50 (Table 10): < 1 µM |
| Cc1cccc(C)c1-c1cc2nc(n1)NS(=O)(=O)c1cccc(c1)C(=O)N(Cc1ccc(-c3c[nH]nc3C3CC3)cn1)[C@H](CC(C)(C)C)CO2 [Compound 297] | – | – | > 60 | EC50 (Table 10): < 1 µM |
| Cc1cccc(C)c1-c1cc2nc(n1)NS(=O)(=O)c1cccc(c1)C(=O)N(Cc1ccc(-c3c(C)n[nH]c3C)cn1)[C@H](CC(C)(C)C)CO2 [Compound 298] | – | – | > 60 | EC50 (Table 10): 1 to 3 µM |
| Cc1cccc(C)c1-c1cc2nc(n1)NS(=O)(=O)c1cccc(c1)C(=O)N(Cc1ccc(-c3cn[nH]c3)cn1)[C@H](CC(C)(C)C)CO2 [Compound 299] | – | – | > 60 | EC50 (Table 10): < 1 µM |
| Cc1cccc(C)c1-c1cc2nc(n1)NS(=O)(=O)c1cccc(c1)C(=O)N(Cc1ncccc1-c1c[nH]nc1C1CC1)[C@H](CC(C)(C)C)CO2 [Compound 300] | – | – | – | activation at 10 µM [4]: > 60% |
| Cc1cccc(C)c1-c1cc2nc(n1)NS(=O)(=O)c1cccc(c1)C(=O)N(Cc1ncccc1-c1c(C)n[nH]c1C)[C@H](CC(C)(C)C)CO2 [Compound 301] | – | – | > 60 | EC50 (Table 10): < 1 µM |
| Cc1cccc(C)c1-c1cc2nc(n1)NS(=O)(=O)c1cccc(c1)C(=O)N(Cc1ccccc1-c1c[nH]nc1C1CC1)[C@H](CC(C)(C)C)CO2 [Compound 303] | – | – | > 60 | EC50 (Table 10): < 1 µM |
| Cc1cccc(C)c1-c1cc2nc(n1)NS(=O)(=O)c1cccc(c1)C(=O)N(Cc1ccccc1-c1c[nH]nc1C(F)(F)F)[C@H](CC(C)(C)C)CO2 [Compound 304] | – | – | – | activation at 10 µM [4]: > 60% |
| Cc1cccc(C)c1-c1cc2nc(n1)NS(=O)(=O)c1cccc(c1)C(=O)N(Cc1ccccc1-c1csc(OC(C)C)n1)[C@H](CC(C)(C)C)CO2 [Compound 305] | – | – | – | activation at 10 µM [4]: > 60% |
| Cc1cccc(C)c1-c1cc2nc(n1)NS(=O)(=O)c1cccc(c1)C(=O)N(Cc1ccccc1-c1c(C)n[nH]c1C)[C@H](CC(C)(C)C)CO2 [Compound 306] | – | – | > 60 | EC50 (Table 10): < 1 µM |
| Cc1cccc(C)c1-c1cc2nc(n1)NS(=O)(=O)c1cccc(c1)C(=O)N(Cc1ccccc1-c1c[nH]nc1C)[C@H](CC(C)(C)C)CO2 [Compound 307] | – | – | – | activation at 10 µM [4]: > 60% |
| Cc1cccc(C)c1-c1cc2nc(n1)NS(=O)(=O)c1cccc(c1)C(=O)N(Cc1cccc(-c3c[nH]nc3C3CC3)c1)[C@H](CC(C)(C)C)CO2 [Compound 308] | – | – | > 60 | EC50 (Table 10): < 1 µM |
| Cc1cccc(C)c1C1CC2NC(N1)NS(=O)(=O)C1CCCC(C1)C(=O)N(Cc1cccc(-c3c[nH]nc3C(C)(C)C)c1)[C@H](CC(C)(C)C)CO2 (stereo partly drawn) [Compound 309] | – | – | > 60 | – |
